Marks after values point to notes of the source that are not given here. One block for each molecule: values may come before it.
Assays:
MC3R and MC4R = settings: ICV infusion, mice (Murphy et al. 1998); cited from earlier work
MC4R = molecular target: T1, MC4R (Rattus norvegicus, UniProt P70596); test: Feeding response to MT II after ODN or saline infusion; assay type: in vivo, Sprague Dawley rats; settings: for Δ FI: 24 hr food intake post minus pre injection; for Δ FI / 24 hr FI post injection / 24 hr FI pre injection: mean ± SEM; for 24 hr FI post injection: food intake after MT II or vehicle injection; for 24 hr FI pre injection: food intake, during ICV infusion, before MT II or vehicle injection
T1 construct: from tissue; host or cells: living Sprague Dawley rats (brain)
T1 sequence (P70596 whole entry, the tested form may be a part): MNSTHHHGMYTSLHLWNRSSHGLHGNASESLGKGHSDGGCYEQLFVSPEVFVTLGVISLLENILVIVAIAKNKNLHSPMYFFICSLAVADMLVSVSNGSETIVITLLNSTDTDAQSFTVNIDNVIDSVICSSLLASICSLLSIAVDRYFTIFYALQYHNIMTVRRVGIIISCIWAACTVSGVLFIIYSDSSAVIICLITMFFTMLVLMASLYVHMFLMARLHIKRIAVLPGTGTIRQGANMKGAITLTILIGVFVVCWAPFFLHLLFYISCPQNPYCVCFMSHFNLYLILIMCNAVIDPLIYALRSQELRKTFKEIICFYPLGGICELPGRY
Description: To further investigate this relationship, antisense suppression of FIT in Sprague Dawley rats was again performed and these animals' responses to administration of the α-MSH analog MT II, a synthetic agonist of the MC4R and known suppressor of feeding. MT II effects on food intake and body weight in saline and jumbled ODN-treated control rats, as well as in FIT antisense-treated rats was measured.

FIT mRNA [1] = test: ICV infusion of FIT antisense ODN in Sprague Dawley rats: food intake and body weight; assay type: in vivo
Description: To confirm the appetite-suppressing and weight-reducing effects of central FIT suppression in an animal model other than P. obesus, the inventors performed the same experiments in Sprague Dawley rats. Male, 12 week old Sprague Dawley rats were infused with either saline, FIT antisense ODN, or jumbled ODN at 24 μg/day for four days. The sequence of the FIT antisense ODN and the jumbled ODN are the same as in Example 2 above.

FIT mRNA [2] = test: Metabolic heat production by indirect calorimetry (FIG. 1); assay type: in vivo, Sprague Dawley rats; settings: Sprague Dawley rats, after three days of treatment
Text: FIG. 1 is a graphical representation of metabolic heat production in Sprague Dawley rats after three days of FIT antisense-treatment compared to jumbled ad libitum fed and jumbled pair fed rats. *p<0.05 pair fed compared to jumbled group, #p<0.05 pair fed compared to FIT antisense-treated group, ̂p<0.05 compared to both jumbled and FIT antisense-treated groups. Data are mean ±SEM.
To further dissect the nature of the inability to reduce TEE levels after FIT antisense treatment, metabolic heat production was measured by indirect calorimetry.

FIT mRNA [3] = test: Hypothalamic FIT gene expression by semi-quantitative RT-PCR in ICV antisense-treated rats; assay type: in vivo, Sprague Dawley rats; settings: hypothalamus
Description: To confirm endogenous suppression of FIT in antisense-treated Sprague Dawley rats, FIT mRNA in the hypothalamus of these animals was measured.

FIT mRNA [4] = test: Pair-feeding study with indirect calorimetry (24 h): body weight, food intake, total energy expenditure; assay type: in vivo, Sprague Dawley rats
Description: To investigate the mechanism of weight loss after FIT antisense treatment, a group of Sprague Dawley rats were pair fed to the average daily food intake levels of FIT antisense-treated rats, and indirect calorimetry (24 h) was performed before and after FIT antisense or jumbled ODN ICV infusion.
Total energy expenditure (TEE) was calculated from measurements of oxygen consumption and carbon dioxide production using indirect calorimetry (Ferrannini, 1988). Due to differences in body weight between the three groups of rats, TEE levels were calculated relative to whole body mass of the animals. […] FIT antisense-treated rats therefore have an inappropriately high level of energy expenditure for their body weight.

FIT mRNA [5] = test: ICV infusion of FIT antisense ODN in Psammomys obesus: food intake and body weight; assay type: in vivo
Description: To further investigate the orexigenic properties of FIT intracerebroventricular (ICV) antisense suppression of FIT was performed. This involved the infusion of FIT antisense oligonucleotides (ODNs) directly into the lateral ventricle space of the brain to suppress endogenous FIT mRNA levels. The effects of this treatment on food intake and body weight were measured and compared to control animals infused with a jumbled sequence ODN, or saline alone. 18 week old, male, lean, normal glucose tolerant (nGT) P. obesus animals were utilised for this study and infused with either saline, FIT antisense ODN, or jumbled ODN at 24 μg/day for four days. The sequence of the FIT antisense ODN was 5′-mu*mg*mg*mc*ma*g*a*a*t*t*g*c*a*mu*mu*mc*mc*mu*-3′, and the jumbled ODN 5′-mc*mg*mc*ma*mc*t*t*a*g*c*t*a*c*mu*mu*mg*mc*mu-3′, where m indicates the presence of a 2′O-Methyl-modified base, and * indicates a phosphorothioate linkage.

melanocortin receptor = test: Feeding response to ICV injection of SHU9119 after three days of ODN or saline infusion; assay type: in vivo, Sprague Dawley rats
Text: To further analyse the link between FIT and the melanocortin system, the feeding response of Sprague Dawley rats to an ICV injection of SHU9119, a melanocortin receptor antagonist and known feeding stimulator was investigated. After three days of FIT antisense treatment, jumbled oligonucleotide or saline infusion, responses were compared to rats receiving an ICV injection of saline vehicle rather than SHU9119.

FIT gene expression = FIT gene expression in the hypothalamus of monogenic mouse models of obesity; assay type: in vivo; settings: leptin-treated ob/ob mice, mean ± SEM
Description: To investigate the molecular pathway via which FIT affect food intake, FIT gene expression was measured in the hypothalamus of several different monogenic mouse models of obesity. […] FIT gene expression was not altered in other genetic models of obesity such as leptin deficient ob/ob mice, MC3R knockout mice and MC4R knockout mice.

SH3GL2; endophilin 1 [6] = molecular target: T2, SH3GL2; endophilin 1 (human, UniProt Q99962 1-352); test: yeast two-hybrid screen of a human brain cDNA library (14 clones)
T2 construct: Prey clone from a human brain cDNA library; not shown: not specified
T2 sequence (Q99962 whole entry): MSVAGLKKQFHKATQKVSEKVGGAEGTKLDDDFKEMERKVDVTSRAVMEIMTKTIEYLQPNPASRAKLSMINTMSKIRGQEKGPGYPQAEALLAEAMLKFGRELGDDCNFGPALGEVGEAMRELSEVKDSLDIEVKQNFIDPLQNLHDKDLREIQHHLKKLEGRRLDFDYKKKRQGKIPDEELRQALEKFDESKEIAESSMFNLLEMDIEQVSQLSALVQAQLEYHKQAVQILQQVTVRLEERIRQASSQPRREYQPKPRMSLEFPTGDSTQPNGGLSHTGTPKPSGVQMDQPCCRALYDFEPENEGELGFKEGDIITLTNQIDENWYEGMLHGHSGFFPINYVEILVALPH
Text: (§1) The inventors utilised a yeast two-hybrid system which incorporates modifications by Chevray and Nathans (1992), and Vidal et al. (1996) to screen a human brain cDNA library.

SH3GL2; endophilin 1 [7] = molecular target: T2, SH3GL2; endophilin 1; test: yeast two-hybrid screen of a human brain cDNA library (12 clones)
Text: as §1

[8] = ICV 24 μg/day, day 1, mean ± SEM
[9] = ICV 24 μg/day, day 2, mean ± SEM
[10] = ICV 24 μg/day, day 3, mean ± SEM
[11] = ICV 24 μg/day, day 4, mean ± SEM
[12] = baseline body weight, mean ± SEM
[13] = change compared to day 0, mean ± SEM
[14] = not pair fed (jumbled group ad libitum fed), mean ± SEM

Δ FI (MC4R): −0.04 ± 0.01 g/g BW | 24 hr FI post injection (MC4R): 0.03 ± 0.01^a g/g BW | 24 hr FI pre injection (MC4R): 0.07 ± 0.01 g/g BW
Molecule: MT II
effect on food intake (MC3R and MC4R): decrease food intake | inhibitory effect on food intake in rats pre-treated with FIT antisense ODN versus control groups (MC4R; not statistically significantly different from control groups): tended to have a greater inhibitory effect

Δ FI (MC4R): −0.01 ± 0.01^c g/g BW | 24 hr FI post injection (MC4R): 0.03 ± 0.01 g/g BW | 24 hr FI pre injection (MC4R): 0.04 ± 0.01^d g/g BW
Molecule: 5′-mu*mg*mg*mc*ma*g*a*a*t*t*g*c*a*mu*mu*mc*mc*mu*-3′ [FIT antisense]
Cumulative food intake, Day 1 Food (FIT mRNA [1]; [8]): 8.6 ± 1.6^a,b g | Cumulative food intake, Day 2 Food (FIT mRNA [1]; [9]): 23.4 ± 2.6^a,b g | Cumulative food intake, Day 3 Food (FIT mRNA [1]; [10]): 38.3 ± 3.6^a,b g | Cumulative food intake, Day 4 Food (FIT mRNA [1]; [11]): 55.0 ± 4.9^a,b g | Day 1 BW (FIT mRNA [1]; ICV 24 μg/day, mean ± SEM): 425 ± 37 g | Day 2 BW (FIT mRNA [1]; ICV 24 μg/day, mean ± SEM): 415 ± 37 g | Day 3 BW (FIT mRNA [1]; ICV 24 μg/day, mean ± SEM): 410 ± 38^a g | Day 4 BW (FIT mRNA [1]; ICV 24 μg/day, mean ± SEM): 408 ± 37^a g | Day 0 BW (FIT mRNA [1]; [12]): 444 ± 37 g | Day 1 ΔBW (FIT mRNA [1]; [13]): −19.6 ± 2.9^b g | Day 2 ΔBW (FIT mRNA [1]; [13]): −28.8 ± 4.1^a,b g | Day 3 ΔBW (FIT mRNA [1]; [13]): −34.4 ± 4.1^a,b g | Day 4 ΔBW (FIT mRNA [1]; [13]): −36.6 ± 6.7^a,b g | metabolic heat production (FIT mRNA [2]): inability to reduce heat production | FIT gene expression (FIT mRNA [3]; ICV-treated Sprague Dawley rats, mean ± SEM): 6.6 ± 1.0^a arbitrary units | FIT gene expression suppressed compared to jumbled-treated rats (FIT mRNA [3]; Sprague Dawley rats): 20% | FIT gene expression suppressed compared to saline-treated rats (FIT mRNA [3]; Sprague Dawley rats): 37% | ability to reduce TEE levels (FIT mRNA [4]; Sprague Dawley rats, TEE relative to whole body mass): unable to significantly reduce | Day 0 BW (FIT mRNA [4]; not pair fed (jumbled group ad libitum fed), baseline, mean ± SEM): 408 ± 13 g | Day 4 BW (FIT mRNA [4]; [14]): 338 ± 12^a,c g | Food Intake (FIT mRNA [4]; [14]): 36.4 ± 11.2^a g | Δ BW (FIT mRNA [4]; [14]): −70.0 ± 8.6^a,b g | Δ TEE (FIT mRNA [4]; not pair fed, mean ± SEM): -67 ± 25 kJ/day/kg | Post TEE (FIT mRNA [4]; not pair fed, total energy expenditure after ICV infusion, mean ± SEM): 525 ± 22 kJ/day/kg | Pre TEE (FIT mRNA [4]; not pair fed, total energy expenditure before ICV infusion, mean ± SEM): 592 ± 30 kJ/day/kg | Cumulative food intake, Day 1 Food (FIT mRNA [5]; [8]): 6.5 ± 1.6^a g | Cumulative food intake, Day 2 Food (FIT mRNA [5]; [9]): 12.3 ± 2.9^a g | Cumulative food intake, Day 3 Food (FIT mRNA [5]; [10]): 18.9 ± 3.9^a g | Cumulative food intake, Day 4 Food (FIT mRNA [5]; [11]): 27.4 ± 4.4^a,b g | Day 1 BW (FIT mRNA [5]; ICV 24 μg/day, mean ± SEM): 195 ± 7 g | Day 2 BW (FIT mRNA [5]; ICV 24 μg/day, mean ± SEM): 194 ± 8 g | Day 3 BW (FIT mRNA [5]; ICV 24 μg/day, mean ± SEM): 192 ± 7 g | Day 4 BW (FIT mRNA [5]; ICV 24 μg/day, mean ± SEM): 190 ± 7 g | cumulative food intake compared to jumbled oligonucleotide-infused and saline-treated control animals (FIT mRNA [5]; ICV, after four days of treatment): significantly reduced | Day 0 BW (FIT mRNA [5]; [12]): 199 ± 7 g | Day 1 ΔBW (FIT mRNA [5]; [13]): −4.5 ± 0.7^a g | Day 2 ΔBW (FIT mRNA [5]; [13]): −5.7 ± 2.1^a g | Day 3 ΔBW (FIT mRNA [5]; [13]): −7.7 ± 1.8^a g | Day 4 ΔBW (FIT mRNA [5]; [13]): −9.2 ± 1.5^a,b g | Δ FI (melanocortin receptor; 48 hr food intake post minus pre injection, mean ± SEM): 0.02 ± 0.01 g/g BW | 48 hr FI post injection (melanocortin receptor; food intake relative to body weight, after ICV SHU9119 or vehicle injection, mean ± SEM): 0.09 ± 0.01^b,d g/g BW | 48 hr FI pre injection (melanocortin receptor; food intake relative to body weight, during ICV infusion, before SHU9119 or vehicle injection, mean ± SEM): 0.07 ± 0.01^b g/g BW | feeding response after SHU9119 injection compared to jumbled-treated or saline-treated rats (melanocortin receptor; relative to body weight): significantly increased

B1: Leptin: leptin given to leptin deficient ob/ob mice (protein, UniProt P41160 22-167, looked up)
Leptin: VPIQKVQDDTKTLIKTIVTRINDISHTQSVSAKQRVTGLDFIPGLHPILSLSKMDQTLAVYQQVLTSLPSQNVLQIANDLENLRDLLHLLAFSKSCSLPQTSGLQKPESLDGVLEASLYSTEVVALSRLQGSLQDILQQLDVSPEC
FIT gene expression (FIT gene expression): 1.3 ± 0.3 arbitrary units

binding result (SH3GL2; endophilin 1 [6]): binds
B2: FIT-NP (FIT N-terminal plus proline-rich region), yeast two-hybrid bait (other, not shown: small tags and cut ends)
chain: MMEGLKKRTRKAFGIRKKEKDTDSTGSPDRDGMQPSPHELPYHSKAECAREGGKKASKKSNGAPNGFYAEIDWERYNSPELDEEGYSIRPEEPGSTKGKHFYSSSESEEEEESHKKFNIKIKPLQSKDILKNAATVDELKASIGNIALSPSPVRKSPRRSPGAIKRNLSSEEVARPRRSTPTPELTSKKPLDDTLALAPLFGPPLESAFDGHKTEVLLDQPEIWGSGQPVNPSMESPKLARPFPTGTPPPLPPKTVPATPPRTGSPLTVATGNDQAATEAKIEKPPSISDLDSIFGPVLSPKSVAVNTEETWVHFSDASPEHVTPELTPREKVVTPPAASDIPADSPTPGPPGPPGSAGPPGPPGPRNVPSPLNLEEVQKKVAEQTFIKDDYLETLSSPKECGLGQRETPPPPPPPTYRTVVSSPGPGSGSGTGTASGASSPARPATPLVPCSCSTPPPPPPRPPSRPKLPPGKPGVGDVSRPFSPPIHSSSPPPIAPL
notes: Truncated fragment of FIT used as bait in a yeast two-hybrid screen of a human brain cDNA library; also called AGT-121

binding result (SH3GL2; endophilin 1 [7]): binds
B3: FIT-PR (FIT proline-rich region), yeast two-hybrid bait (other, not shown: small tags and cut ends)
chain: RPFPTGTPPPLPPKTVPATPPRTGSPLTVATGNDQAATEAKIEKPPSISDLDSIFGPVLSPKSVAVNTEETWVHFSDASPEHVTPELTPREKVVTPPAASDIPADSPTPGPPGPPGSAGPPGPPGPRNVPSPLNLEEVQKKVAEQTFIKDDYLETLSSPKECGLGQRATPPPPPPPTYRTVVSSPGPGSGSGTGTASGASSPARPATPLVPCSCSTPPPPPPRPPSRPKLPPGKPGVGDVSRPFSPPIHSSSPPPIAPL
notes: as for B2
